The target in test [1] is T1, GST-tagged truncated LRRK2 (Homo sapiens, UniProt Q5S007).
T1 construct: GST-tagged truncated LRRK2 from Invitrogen (Cat # PV4874); GST; purchased Invitrogen PV4874
The experiment in a line: LRRK2 Assay, Format 2 (Lantha Screen), WT. The following applies: geometric mean of 2-4 determinations unless otherwise indicated (a: >=5; b: single determination). Format: biochemical.

The target in test [2] is mutant G2019S LRRK2 (Homo sapiens, UniProt Q5S007, G2019S). The test is described as follows: LRRK2 Assay, Format 2 (Lantha Screen), G2019S mutant. Format: biochemical. On the set-up: purchased Invitrogen PV4881. As to conditions: geometric mean of 2-4 determinations unless otherwise indicated (a: >=5; b: single determination); read-out: LRRK2, Format 2 G2019S IC50.

We go through 27 compounds from patent US10039753B2, “Imidazo[4,5-c]quinoline and imidazo[4,5-c][1,5]naphthyridine derivatives as LRRK2 inhibitors” (Pfizer Inc., priority 2015, dated 2018).

Structures can show the parent of a compound that is named as a salt.

Broadly, the IC50 is the concentration that gives 50% inhibition.

T1 sequence (Q5S007 970-2527 limits assumed): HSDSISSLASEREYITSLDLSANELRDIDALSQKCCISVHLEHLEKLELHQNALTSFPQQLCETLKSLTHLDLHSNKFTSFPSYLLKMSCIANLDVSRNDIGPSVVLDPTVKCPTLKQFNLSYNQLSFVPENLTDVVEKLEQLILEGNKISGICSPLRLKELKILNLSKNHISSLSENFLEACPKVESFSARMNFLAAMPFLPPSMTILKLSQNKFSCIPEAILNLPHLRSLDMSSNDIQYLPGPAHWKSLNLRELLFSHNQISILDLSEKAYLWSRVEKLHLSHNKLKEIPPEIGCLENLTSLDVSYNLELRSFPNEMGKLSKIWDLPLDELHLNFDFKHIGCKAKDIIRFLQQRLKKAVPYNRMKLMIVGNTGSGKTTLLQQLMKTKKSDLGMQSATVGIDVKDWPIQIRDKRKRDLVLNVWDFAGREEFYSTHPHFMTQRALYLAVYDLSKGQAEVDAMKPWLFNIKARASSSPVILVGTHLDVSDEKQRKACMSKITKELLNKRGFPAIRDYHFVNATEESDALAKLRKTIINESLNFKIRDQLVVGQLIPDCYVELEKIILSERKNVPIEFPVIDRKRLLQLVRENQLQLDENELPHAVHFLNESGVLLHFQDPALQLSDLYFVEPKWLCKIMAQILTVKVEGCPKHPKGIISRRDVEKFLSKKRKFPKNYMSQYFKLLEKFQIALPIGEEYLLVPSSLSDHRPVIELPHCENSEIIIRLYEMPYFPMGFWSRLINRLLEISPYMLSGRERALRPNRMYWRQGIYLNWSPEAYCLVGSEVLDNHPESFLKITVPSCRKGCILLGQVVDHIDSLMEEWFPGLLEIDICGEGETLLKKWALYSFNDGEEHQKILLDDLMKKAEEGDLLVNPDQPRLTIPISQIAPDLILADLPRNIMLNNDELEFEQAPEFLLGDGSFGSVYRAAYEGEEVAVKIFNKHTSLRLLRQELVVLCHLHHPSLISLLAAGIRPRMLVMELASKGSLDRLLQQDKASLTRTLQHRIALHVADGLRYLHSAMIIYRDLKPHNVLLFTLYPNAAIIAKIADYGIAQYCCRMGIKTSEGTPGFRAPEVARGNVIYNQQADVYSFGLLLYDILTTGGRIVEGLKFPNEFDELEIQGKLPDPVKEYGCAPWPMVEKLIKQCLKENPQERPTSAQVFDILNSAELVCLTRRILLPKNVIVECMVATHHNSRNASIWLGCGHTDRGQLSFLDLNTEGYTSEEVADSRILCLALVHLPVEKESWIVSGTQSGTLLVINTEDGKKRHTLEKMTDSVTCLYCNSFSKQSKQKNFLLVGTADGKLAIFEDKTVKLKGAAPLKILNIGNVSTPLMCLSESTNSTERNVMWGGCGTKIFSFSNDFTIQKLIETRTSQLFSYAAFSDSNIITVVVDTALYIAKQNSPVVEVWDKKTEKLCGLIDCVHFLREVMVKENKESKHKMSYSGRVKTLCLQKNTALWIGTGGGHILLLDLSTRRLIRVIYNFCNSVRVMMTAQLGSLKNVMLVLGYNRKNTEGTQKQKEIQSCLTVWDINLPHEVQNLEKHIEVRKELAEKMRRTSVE
mutant G2019S LRRK2, sequence (Q5S007 970-2527 G2019S limits assumed): as the sequence (Q5S007 970-2527 limits assumed) above, with G1050S counted along it

`C[C@@H]1C[C@H](n2c(Cc3ccn(C)n3)nc3cnc4ccc(Cl)cc4c32)CCO1` [Example 163, 8-chloro-2-[(1-methyl-1H-pyrazol-3-yl)methyl]-1-[(2R,4R)-2-methyltetrahydro-2H-pyran-4-yl]-1H-imidazo[4,5-c]quinoline]: the IC50 in test [1] came to 7.01 nM; in test [2], 7.25 nM.

In the case of `C[C@@H]1C[C@H](n2c(Cc3cc(=O)n4ccccc4n3)nc3cnc4ccc(Cl)cc4c32)CCO1` [Example 164, 2-({8-chloro-1-[(2R,4R)-2-methyltetrahydro-2H-pyran-4-yl]-1H-imidazo[4,5-c]quinolin-2-yl}methyl)-4H-pyrido[1,2-a]pyrimidin-4-one, formate salt], the concentration for half-maximal inhibition (IC50) was determined as 5.88 nM in test [1] and 6.18 nM in test [2].

Consider `C[C@@H]1C[C@H](n2c(Cc3ccc4nnnn4n3)nc3cnc4ccc(Cl)cc4c32)CCO1` [Example 165, 8-chloro-1-[(2R,4R)-2-methyltetrahydro-2H-pyran-4-yl]-2-(tetrazolo[1,5-b]pyridazin-6-ylmethyl)-1H-imidazo[4,5-c]quinoline], for which the concentration for half-maximal inhibition (IC50) in test [1] is 6.75 nM; in test [2], 7.44 nM.

Take `C[C@@H]1C[C@H](n2c(Cc3cc4n(n3)CCC4)nc3cnc4ccc(Cl)cc4c32)CCO1` [Example 166, 8-chloro-2-(5,6-dihydro-4H-pyrrolo[1,2-b]pyrazol-2-ylmethyl)-1-[(2R,4R)-2-methyltetrahydro-2H-pyran-4-yl]-1H-imidazo[4,5-c]quinoline, trifluoroacetate salt]: the 50% inhibitory concentration (IC50) worked out at 7.35 nM in test [1] and 7.38 nM in test [2].

On to `C[C@@H]1C[C@H](n2c(Cc3cn4ccccc4n3)nc3cnc4ccc(Cl)cc4c32)CCO1` [Example 167, 8-chloro-2-(imidazo[1,2-a]pyridin-2-ylmethyl)-1-[(2R,4R)-2-methyltetrahydro-2H-pyran-4-yl]-1H-imidazo[4,5-c]quinoline, trifluoroacetate salt], for which the IC50 in test [1] was found to be 8.26 nM; in test [2] it was 8.43 nM.

As to `C[C@@H]1C[C@H](n2c(C(=O)c3ccon3)nc3cnc4ccc(Cl)cc4c32)CCO1` [Example 174, {8-chloro-1-[(2R,4R)-2-methyltetrahydro-2H-pyran-4-yl]-1H-imidazo[4,5-c]quinolin-2-yl}(1,2-oxazol-3-yl)methanone], the IC50 in test [1] stood at 16.8 nM; in test [2], 19.6 nM.

Turning to `C[C@@H]1C[C@H](n2c(Cn3cc(C(F)(F)F)nn3)nc3cnc4ccc(C#N)cc4c32)CCO1` [Example 175, 1-[(2R,4R)-2-methyltetrahydro-2H-pyran-4-yl]-2-{[4-(trifluoromethyl)-1H-1,2,3-triazol-1-yl]methyl}-1H-imidazo[4,5-c]quinoline-8-carbonitrile], the IC50 was found to be 13.4 nM in test [1] and 12.2 nM in test [2].

As to `C[C@@H]1C[C@H](n2c(Cc3ccncn3)nc3cnc4ccc(C(F)(F)F)cc4c32)CCO1` [Example 178, 1-[(2R,4R)-2-methyltetrahydro-2H-pyran-4-yl]-2-(pyrimidin-4-ylmethyl)-8-(trifluoromethyl)-1H-imidazo[4,5-c]quinoline], the half-maximal inhibitory concentration (IC50) in test [1] worked out at 5.64 nM; in test [2] it was 3.32 nM.

For `COc1cnn(Cc2nc3cnc4ccc(F)cc4c3n2[C@@H]2CCO[C@H](C)C2)c1` [Example 179, 8-fluoro-2-[(4-methoxy-1H-pyrazol-1-yl)methyl]-1-[(2R,4R)-2-methyltetrahydro-2H-pyran-4-yl]-1H-imidazo[4,5-c]quinoline], the concentration for half-maximal inhibition (IC50) was 14 nM in test [1] and 12.6 nM in test [2].

On to `CO[C@H]1C[C@@H](n2c(Cn3cc(C)cn3)nc3cnc4ccc(Cl)cc4c32)C1` [Example 180, 8-chloro-1-[(1s,3s)-3-methoxycyclobutyl]-2-[(4-methyl-1H-pyrazol-1-yl)methyl]-1H-imidazo[4,5-c]quinoline], for which the 50% inhibitory concentration (IC50) amounted to 30.4 nM in test [1] and 29.9 nM in test [2].

For `CO[C@H]1C[C@@H](n2c(Cn3cc(C)nn3)nc3cnc4ccc(Cl)cc4c32)C1` [Example 183, 8-chloro-1-[(1s,3s)-3-methoxycyclobutyl]-2-[(4-methyl-1H-1,2,3-triazol-1-yl)methyl]-1H-imidazo[4,5-c]quinoline], the results for the IC50 in test [1] and in test [2] were 33.8 nM and 30.8 nM, respectively.

For the compound `CCC(F)(F)Cn1c(Cc2cnccn2)nc2cnc3ccc(Cl)cc3c21` [Example 184, 8-chloro-1-(2,2-difluorobutyl)-2-(pyrazin-2-ylmethyl)-1H-imidazo[4,5-c]quinoline], the IC50 in test [1] is 34.3 nM; in test [2] it was 22.8 nM.

As to `CCC(F)(F)Cn1c(Cn2cc(C)nn2)nc2cnc3ccc(Cl)cc3c21` [Example 186, 8-chloro-1-(2,2-difluorobutyl)-2-[(4-methyl-1H-1,2,3-triazol-1-yl)methyl]-1H-imidazo[4,5-c]quinoline], the half-maximal inhibitory concentration (IC50) in test [1] was determined as 22.5 nM; in test [2], 16.4 nM.

Regarding `Cc1cn(Cc2nc3cnc4ccc(Cl)cc4c3n2C2CCC2(F)F)nn1` (stereo not drawn) [Example 187, 8-chloro-1-(2,2-difluorocyclobutyl)-2-[(4-methyl-1H-1,2,3-triazol-1-yl)methyl]-1H-imidazo[4,5-c]quinoline], the IC50 stood at 28.1 nM in test [1] and 33.3 nM in test [2].

In the case of `C[C@@H]1C[C@H](n2c(Cc3cc(CF)on3)nc3cnc4ccc(C#N)cc4c32)CCO1` [Example 189, 2-{[5-(fluoromethyl)-1,2-oxazol-3-yl]methyl}-1-[(2R,4R)-2-methyltetrahydro-2H-pyran-4-yl]-1H-imidazo[4,5-c]quinoline-8-carbonitrile, trifluoroacetate salt], the IC50 amounted to 5.04 nM in test [1] and 3.54 nM in test [2].

On to `Cc1cnn(Cc2nc3cnc4ccc(C#N)cc4c3n2[C@H]2CCN(C)C2)c1` [Example 190, 2-[(4-methyl-1H-pyrazol-1-yl)methyl]-1-[(3S)-1-methylpyrrolidin-3-yl]-1H-imidazo[4,5-c]quinoline-8-carbonitrile], for which the IC50 in test [1] stood at 26.6 nM; in test [2], 26.2 nM.

Regarding `C[C@@H]1C[C@H](n2c(Cc3cnns3)nc3cnc4ccc(Cl)cc4c32)CCO1` [Example 193, 8-chloro-1-[(2R,4R)-2-methyltetrahydro-2H-pyran-4-yl]-2-(1,2,3-thiadiazol-5-ylmethyl)-1H-imidazo[4,5-c]quinoline], the half-maximal inhibitory concentration (IC50) turned out to be 37.3 nM in test [1] and 32.6 nM in test [2].

As to `Cc1cnn(Cc2nc3cnc4ccc(C#N)cc4c3n2[C@@H]2CCN(C)C2)c1` [Example 194, 2-[(4-methyl-1H-pyrazol-1-yl)methyl]-1-[(3R)-1-methylpyrrolidin-3-yl]-1H-imidazo[4,5-c]quinoline-8-carbonitrile], the values for the 50% inhibitory concentration (IC50) in test [1] and in test [2] were 19.9 nM and 25.1 nM, respectively.

For the compound `C[C@@H]1C[C@H](n2c(Cc3csnn3)nc3cnc4ccc(C#N)cc4c32)CCO1` [Example 195, 1-[(2R,4R)-2-methyltetrahydro-2H-pyran-4-yl]-2-(1,2,3-thiadiazol-4-ylmethyl)-1H-imidazo[4,5-c]quinoline-8-carbonitrile], the values for the IC50 in test [1] and in test [2] were 3.46 nM and 2.28 nM, respectively.

Consider `Cc1cnn(Cc2nc3cnc4ccc(F)cc4c3n2[C@@H]2CCO[C@H](C)C2)c1` [Example 198, 8-fluoro-2-[(4-methyl-1H-pyrazol-1-yl)methyl]-1-[(2R,4R)-2-methyltetrahydro-2H-pyran-4-yl]-1H-imidazo[4,5-c]quinoline], for which the concentration for half-maximal inhibition (IC50) is 15.2 nM in test [1] and 16.8 nM in test [2].

Consider `Cc1cn(Cc2nc3cnc4ccc(F)cc4c3n2[C@@H]2CCO[C@H](C)C2)nn1` [Example 199, 8-fluoro-1-[(2R,4R)-2-methyltetrahydro-2H-pyran-4-yl]-2-[(4-methyl-1H-1,2,3-triazol-1-yl)methyl]-1H-imidazo[4,5-c]quinoline], for which the IC50 in test [1] came out at 10.3 nM; in test [2], 11.8 nM.

As to `Cc1cc(Cc2nc3cnc4ccc(F)cc4c3n2[C@@H]2CCO[C@H](C)C2)no1` [Example 200, 8-fluoro-2-[(5-methyl-1,2-oxazol-3-yl)methyl]-1-[(2R,4R)-2-methyltetrahydro-2H-pyran-4-yl]-1H-imidazo[4,5-c]quinoline], the IC50 in test [1] is 12.4 nM; in test [2] it was 14.3 nM.

With `Cc1cnc(Cc2nc3cnc4ccc(C#N)cc4c3n2[C@@H]2CCO[C@H](C)C2)s1` [Example 205, 1-[(2R,4R)-2-methyltetrahydro-2H-pyran-4-yl]-2-[(5-methyl-1,3-thiazol-2-yl)methyl]-1H-imidazo[4,5-c]quinoline-8-carbonitrile], the results for the concentration for half-maximal inhibition (IC50) in test [1] and in test [2] were 6.52 nM and 6.09 nM, respectively.

As for `Cc1nnn(Cc2nc3cnc4ccc(Cl)cc4c3n2[C@@H]2CCO[C@H](C)C2)n1` [Example 206, 8-chloro-1-[(2R,4R)-2-methyltetrahydro-2H-pyran-4-yl]-2-[(5-methyl-2H-tetrazol-2-yl)methyl]-1H-imidazo[4,5-c]quinoline], the half-maximal inhibitory concentration (IC50) in test [1] was 10.4 nM; in test [2], 9.57 nM.

For the compound `C[C@@H]1C[C@H](n2c(Cc3ccc(C(F)(F)F)cn3)nc3cnc4ccc(C#N)cc4c32)CCO1` [Example 208, 1-[(2R,4R)-2-methyltetrahydro-2H-pyran-4-yl]-2-{[5-(trifluoromethyl)pyridin-2-yl]methyl}-1H-imidazo[4,5-c]quinoline-8-carbonitrile], the IC50 is 15 nM in test [1] and 14.3 nM in test [2].

In the case of `CCc1cnn(Cc2nc3cnc4ccc(C#N)cc4c3n2CC(C)(F)F)c1` [Example 209, 1-(2,2-difluoropropyl)-2-[(4-ethyl-1H-pyrazol-1-yl)methyl]-1H-imidazo[4,5-c]quinoline-8-carbonitrile], the values for the half-inhibitory concentration (IC50) in test [1] and in test [2] were 8.02 nM and 9.93 nM, respectively.

Regarding `COc1cnn(Cc2nc3cnc4ccc(C#N)cc4c3n2CC(C)(F)F)c1` [Example 210, 1-(2,2-difluoropropyl)-2-[(4-methoxy-1H-pyrazol-1-yl)methyl]-1H-imidazo[4,5-c]quinoline-8-carbonitrile], the IC50 came to 7.04 nM in test [1] and 7.63 nM in test [2].
